Measured values from patent publication US12441743B2, “Spiro aromatic ring compound and use thereof” (Etern Biopharma (Shanghai) Co., Ltd., priority 2018, dated 2025).

Tests used:
[1] = tested on: MV4-11 cells; test: MV4-11 cell proliferation inhibition experiment (CellTiter-Glo); type: cell-based; conditions: Homo sapiens; MV4-11 cells, 72 h, CellTiter-Glo; read-out: Cell proliferation inhibition activity
Method: The number of living cells in the culture was determined by quantitative determination of intracellular ATP using CellTiter-Glo® Luminescent Cell Viability Assay kit.
In the first step, MV4-11 cells were inoculated into 96-well plates with a density of 2500 cells per well and a volume of 100 μL per well. The plates were placed in 37° C., 5% carbon dioxide incubator overnight.
In the second step, cells were treated with compounds. The compounds to be tested were diluted 3 times, and 8 concentration gradients were set up. Each well was added with a certain volume of DMSO or the compound to be tested, and each concentration was tested in 2 replicates, and the final concentration of DMSO was 0.5%. The plates were placed in 37° C., 5% carbon dioxide incubator for 72 h.
In the third step, cell viability of the control groups and the treatment groups was determined using CellTiter-Glo® Luminescent Cell Viability Assay kit (Promega, G7570). Each well was added with 50 uL CellTiter-Glo. The culture was mixed well, and incubated at room temperature for 10 min. Signals were read using EnSpire (Perkin Elmer). Inhibition percentages (%) were calculated by the following formula:
Inhibition percentage (%)=(1−signal value of compound treatment group/signal value of DMSO treatment group)*100.

[2] = target: T1, SHP2 E76A protein (Homo sapiens, UniProt Q06124, E76A); test: SHP2 enzyme activity inhibition test (DiFMUP substrate, fluorescence); type: biochemical; conditions: 50 ng SHP2 E76A, 20 min with compound, then 10 uM DiFMUP 20 min at room temperature
T1 sequence (Q06124 1-593 E76A): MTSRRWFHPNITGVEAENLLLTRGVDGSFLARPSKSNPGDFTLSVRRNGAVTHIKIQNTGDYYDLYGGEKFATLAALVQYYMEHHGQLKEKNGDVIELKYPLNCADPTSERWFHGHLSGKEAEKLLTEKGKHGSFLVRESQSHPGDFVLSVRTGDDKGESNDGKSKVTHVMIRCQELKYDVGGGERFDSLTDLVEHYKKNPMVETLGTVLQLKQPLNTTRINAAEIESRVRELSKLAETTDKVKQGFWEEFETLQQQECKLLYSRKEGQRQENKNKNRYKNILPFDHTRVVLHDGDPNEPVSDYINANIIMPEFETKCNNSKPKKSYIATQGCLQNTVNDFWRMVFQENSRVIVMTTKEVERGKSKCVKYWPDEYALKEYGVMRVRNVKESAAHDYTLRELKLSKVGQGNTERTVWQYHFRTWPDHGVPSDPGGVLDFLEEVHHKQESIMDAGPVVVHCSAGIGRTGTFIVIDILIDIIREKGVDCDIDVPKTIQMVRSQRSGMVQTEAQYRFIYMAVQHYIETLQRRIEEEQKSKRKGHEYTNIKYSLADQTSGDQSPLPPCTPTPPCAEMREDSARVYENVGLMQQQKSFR

[3] = Pharmacokinetics experiment, intragastric single dose; type: in vivo; conditions: mouse, plasma, male mice, oral administration dosage 5 mg/Kg; for half-life: read-out: Half-life T1/2 (converted); for Cmax: read-out: Maximum plasma concentration Cmax; for AUC: read-out: Plasma exposure AUC
Method: Pharmacokinetics of the compound of the disclosure was determined. The following method was used to determine the pharmacokinetic parameters of the compound of the disclosure. Healthy male adult mice were used in the study. Each group was intragastrically administered with a single dose of 5-100 mg/kg. Fasting lasted from 10 hours before administration to 4 hours after administration. Blood samples were collected at different time points after administration and the compound content in plasma was determined by LC-MS/MS. The relationship between plasma concentration and time was analyzed by professional software (winnonlin), and the pharmacokinetic parameters of the compounds were calculated. According to Table 3, the compounds of the disclosure have excellent pharmacokinetic properties.

| IC50 [1] | IC50 [2] | bioavailability [3] | half-life [3] | Cmax [3] | AUC [3] | SMILES |
| --- | --- | --- | --- | --- | --- | --- |
| 7 nM | 3 nM | 51% | 3.8 h | 5 µM | 48 µM·h | Nc1nccc(Sc2cnc(N3CCC4(CC3)Cc3cccnc3[C@H]4N)n3ccnc23)c1Cl [Compound 10, (S)-1′-(8-((2-amino-3-chloropyridin-4-yl)thio)imidazo[1,2-c]pyrimidin-5-yl)-5,7-dihydrospiro[cyclopenta[b]pyridine-6,4′-piperidine]-7-amine] |
| 29 nM | 3 nM | 98% | 3 h | 7.5 µM | 43 µM·h | Nc1nccc(Sc2cnc(N3CCC4(CC3)Cc3ccncc3[C@H]4N)n3cnnc23)c1Cl [Compound 7, (5)-1′-(8-((2-amino-3-chloropyridin-4-yl)thio)-[1,2,4]triazolo[4,3-c]pyrimidin-5-yl)-5,7-dihydrospiro[cyclopenta[c]pyridine-6,4′-piperidine]-7-amine] |
